According to patent EP4471049A1 (Zealand Pharma A/S, priority 2023, dated 2024):
*1 amine or outer side, *2 acyl side, *3 side chain or, on linkers, in order; H or OH if unused. Where a SMILES comes first, the peptide text is derived from it. Bridges are numbered along the chain shown (N, C = ends). [ ]: non-standard residue; d: D form. The star is where a group is joined. 2Nal = N[C@@H](Cc1ccc2ccccc2c1)C(=O)O; AEF = NCCOc1ccc(C[C@H](N)C(=O)O)cc1; X1 = O=C(Cc1ccc(CN[*:1])cc1)[*:2]; 3Pal = N[C@@H](Cc1cccnc1)C(=O)O; αMeL = CC(C)C[C@](C)(N)C(=O)O; CH2COCH2 = O=C(C[*:1])C[*:2]; NMeS = CN[C@@H](CO)C(=O)O; Pyrrolidide = C1CCN(*)C1; Dab = NCC[C@H](N)C(=O)O; βAla = NCCC(=O)O

Molecular target: T1, human IL-23R (Homo sapiens, UniProt Q5VWK5)
T1 sequence (Q5VWK5 22-629): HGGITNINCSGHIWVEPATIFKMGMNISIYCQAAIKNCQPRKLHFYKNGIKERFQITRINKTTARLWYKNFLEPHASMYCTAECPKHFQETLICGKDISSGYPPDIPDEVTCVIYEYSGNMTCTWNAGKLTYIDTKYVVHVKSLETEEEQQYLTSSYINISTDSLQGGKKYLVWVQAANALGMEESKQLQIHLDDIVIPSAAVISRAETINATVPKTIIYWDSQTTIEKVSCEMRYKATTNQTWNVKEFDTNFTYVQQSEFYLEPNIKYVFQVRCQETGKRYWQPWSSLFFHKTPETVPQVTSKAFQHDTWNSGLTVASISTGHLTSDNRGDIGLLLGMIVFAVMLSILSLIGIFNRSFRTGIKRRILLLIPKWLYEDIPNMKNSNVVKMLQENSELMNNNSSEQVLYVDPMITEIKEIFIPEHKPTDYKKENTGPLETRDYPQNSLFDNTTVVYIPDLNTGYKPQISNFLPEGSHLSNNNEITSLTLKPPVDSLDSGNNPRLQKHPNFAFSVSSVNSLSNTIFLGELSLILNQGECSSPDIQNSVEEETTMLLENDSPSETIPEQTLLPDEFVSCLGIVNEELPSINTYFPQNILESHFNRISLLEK
Assay: biochemical
Conditions: not given
Description: The compound binding affinity for IL-23R was estimated by the ability of compounds to displace a fluorophore-labelled reference compound from the human IL-23R. The assay principle relies on Bioluminescence Resonance Energy Transfer (BRET) between a fluorophore-labelled reference compound binding to the IL-23R part of a fusion protein consisting of the IL-23R fused to a Nanoluc luciferase enzyme (Nanoluc). The Nanoluc is placed in the N-terminus in close proximity to the binding domain of the ligand. Upon close proximity between the fluorophore of the fluorophore-labelled compound and the Nanoluc of the fusion protein, bioluminescence energy generated from conversion of a Nanoluc substrate, is transferred to the fluorophore resulting in an increase in BRET. In presence of an unlabelled compound, the unlabelled compound displaces the fluorophore-labelled peptide from its binding site resulting in a decrease in BRET. The concentration for which half of the fluorophore-labelled peptide is displaced by the unlabelled compound depends on the affinity of the compound for the IL-23R, and is termed the IC50 concentration.
The plasmid also contained a gene to confer resistance for the antibiotic hygromycin. A cell line stably expressing the Nluc-IL23R fusion protein was generated by transfection of HEK293 cells with the expression plasmid and selected with hygromycin for 3 weeks in Growth medium consisting of DMEM w/ Glutamax-I containing, 10% V/V FBS, 1% V/V P/S, 1 mM Sodium Pyruvate, and 1X NEAA, and 0.3 mg/mL hygromycin. The remaining cells were propagated and considered a stable expressing Nluc-IL23R fusion protein pool clone.
Cells expressing the Nluc-IL23R fusion protein were expanded in Growth medium and membranes prepared by homogenization of a cell pellet from 18 T175 flasks (4 °C in subsequent steps). The cell pellet was lysed Tris 10 mM, 7.5, 1 mM EDTA and protease inhibitors (Complete, Roche) and homogenized using a 15 mL glass-dounce by 50 strokes. The homogenate was spun at spin @1500 rpm for 10 min, the supernatant transferred to SV-34 tubes and spun at 40000g for 20 min at 4 °C to pellet the crude membranes. The supernatant was then removed, the pellet resuspended in 5 mL buffer containing 50 mM HEPES pH 7.4, 5 mM EGTA, and 5 mM MgCl2, and homogenized. Aliquots of the resuspended and homogenized membranes containing the Nluc-IL23R fusion protein were stored at -80 °C until use.
The plate was sealed with light impermeable plate seals, and incubated on an orbital shaker 400 rpm for 2 hours at room temperature. To determine the BRET ratio, the plate seal was removed and 25 µL of the Nanoluc substrate (Promega N1572) diluted 1:500 was added to each well and incubated for 1-2 minutes on an orbital shaker at 400 rpm. […] The BRET ratio was calculated as the fluorescence from the TAMRA/nanoluc bioluminescence.
Compound potency (IC50) and maximal displacement (% displacement) were estimated by computer-aided curve fitting using a 4-parameter logistic (4PL) non-linear model. […]
In this application, the inventors provide the data as IC50 values.

SMILES | % displacement (hIL-23R binding) [%] | IC50 [pM]
CC(C)C[C@]1(C)NC(=O)[C@H](Cc2ccc3ccccc3c2)NC(=O)[C@H](Cc2ccc(OCCN)cc2)NC(=O)[C@@H]2CSCC(=O)CSC[C@H](NC(=O)[C@H](CO)NC(=O)[C@H](Cc3cccnc3)NC(=O)CCNC(=O)CC[C@@H](C(=O)N[C@H](CCCNC(=N)N)C(N)=O)NC1=O)C(=O)N[C@@H](Cc1c[nH]c3ccccc13)C(=O)N[C@@H](CCC(N)=O)C(=O)N2 [Compound 1, [3-Aminopropanoyl](4c)*[3-(3-Pyridyl)-Ala]SC(2a)WQC(2a)[Y(2-aminoethoxy)][2-Nal][2-Me-Leu]E(4c)[{d}R]-[NH2]] ([βAla][3Pal]SCWQC[AEF][2Nal][αMeL]E[dR]-NH2; linker 4-7 via CH2COCH2; lactam N-11) | 105 | 5400
CC(C)C[C@]1(C)NC(=O)[C@H](Cc2ccc3ccccc3c2)NC(=O)[C@H](Cc2ccc(OCCN)cc2)NC(=O)[C@@H]2CSCC(=O)CSC[C@H](NC(=O)[C@H](CO)NC(=O)CCNC(=O)[C@H](Cc3cccnc3)NC(=O)CC[C@@H](C(=O)N[C@H](CCCNC(=N)N)C(N)=O)NC1=O)C(=O)N[C@@H](Cc1c[nH]c3ccccc13)C(=O)N[C@@H](CCC(N)=O)C(=O)N2 [Compound 2, [3-(3-Pyridyl)-Ala](4c)*[3-Aminopropanoyl]SC(2a)WQC(2a)[Y(2-aminoethoxy)][2-Nal][2-Me-Leu]E(4c)[{d}R]-[NH2]] ([3Pal][βAla]SCWQC[AEF][2Nal][αMeL]E[dR]-NH2; linker 4-7 via CH2COCH2; lactam N-11) | 103 | 2900
CC(C)C[C@]1(C)NC(=O)[C@H](Cc2ccc3ccccc3c2)NC(=O)[C@H](Cc2ccc(OCCN)cc2)NC(=O)[C@@H]2CCNC(=O)CC[C@H](NC(=O)[C@H](CO)NC(=O)Cc3ccc(cc3)CNC(=O)CC[C@@H](C(=O)NC[C@@H](N[C@@H](Cc3cccnc3)C(N)=O)C(F)(F)F)NC1=O)C(=O)N[C@@H](Cc1c[nH]c3ccccc13)C(=O)N[C@@H](CCC(N)=O)C(=O)N2 [Compound 16, [4-Aminomethyl-phenylacetyl](1c)*SE(2c)WQ[Dab](2c)[Y(2-aminoethoxy)][2-Nal][2-Me-Leu]E(1c)[{d}Gly-CF3][3-(3-Pyridyl)-Ala]-[NH2]] |  | 130
CC(C)C[C@]1(C)NC(=O)[C@H](Cc2ccc3ccccc3c2)NC(=O)[C@H](Cc2ccc(OCCN)cc2)NC(=O)[C@@H]2CCNC(=O)CC[C@H](NC(=O)[C@H](CO)NC(=O)Cc3ccc(cc3)CNC(=O)CC[C@@H](C(=O)NC[C@H](N[C@@H](Cc3cccnc3)C(N)=O)C(F)(F)F)NC1=O)C(=O)N[C@@H](Cc1c[nH]c3ccccc13)C(=O)N[C@@H](CCC(N)=O)C(=O)N2 [Compound 17, [4-Aminomethyl-phenylacetyl](1c)*SE(2c)WQ[Dab](2c)[Y(2-aminoethoxy)][2-Nal][2-Me-Leu]E(1c)[Gly-CF3][3-(3-Pyridyl)-Ala]-[NH2]] | 98 | 

The remaining lines, values ahead:

% displacement (hIL-23R binding) [%] | IC50 [pM] | SMILES
 | 15 | CNC(=O)[C@H](Cc1cccnc1)NC(=O)[C@H](CCN)NC(=O)[C@@H]1CCC(=O)NCc2ccc(cc2)CC(=O)N(C)[C@@H](CO)C(=O)N[C@H]2CCC(=O)NCC[C@H](NC(=O)[C@H](CCC(N)=O)NC(=O)[C@H](Cc3c[nH]c4ccccc34)NC2=O)C(=O)N[C@@H](Cc2ccc(OCCN)cc2)C(=O)N[C@@H](Cc2ccc3ccccc3c2)C(=O)N[C@@](C)(CC(C)C)C(=O)N1 [Compound 18, [4-Aminomethyl-phenylacetyl](1c)*[N-Me-Ser]E(2c)WQ[Dab](2c)[Y(2-aminoethoxy)][2-Nal][2-Me-Leu]E(1c)[Dab][3-(3-Pyridyl)-Ala]-[NHMe]] ([X1][NMeS]EWQ[Dab][AEF][2Nal][αMeL]E[Dab][3Pal]-NHMe; lactam 3-6, N-10)
103 | 54 | CNC(=O)[C@H](Cc1cncnc1)NC(=O)[C@H](CCN)NC(=O)[C@@H]1CCC(=O)NCc2ccc(cc2)CC(=O)N[C@@H](CO)C(=O)N[C@H]2CCC(=O)NCC[C@H](NC(=O)[C@H](CCC(N)=O)NC(=O)[C@H](Cc3c[nH]c4ccccc34)NC2=O)C(=O)N[C@@H](Cc2ccc(OCCN)cc2)C(=O)N[C@@H](Cc2ccc3ccccc3c2)C(=O)N[C@@](C)(CC(C)C)C(=O)N1 [Compound 19, [4-Aminomethyl-phenylacetyl](1c)*SE(2c)WQ[Dab](2c)[Y(2-aminoethoxy)][2-Nal][2-Me-Leu]E(1c)[Dab][3-(3,5-Pyrimidyl)-Ala]-[NHMe]]
97 |  | CNC(=O)[C@H](Cc1cccnc1)NC(=O)[C@H](CCN)NC(=O)[C@@H]1CCC(=O)NCc2ccc(cc2)CC(=O)N[C@@H](CO)C(=O)N[C@H]2CCC(=O)NCC[C@H](NC(=O)[C@H](Cc3ccccc3)NC(=O)[C@H](Cc3c[nH]c4ccccc34)NC2=O)C(=O)N[C@@H](Cc2ccc(OCCN)cc2)C(=O)N[C@@H](Cc2ccc3ccccc3c2)C(=O)N[C@@](C)(CC(C)C)C(=O)N1 [Compound 23, [4-Aminomethyl-phenylacetyl](1c)*SE(2c)WF[Dab](2c)[Y(2-aminoethoxy)][2-Nal][2-Me-Leu]E(1c)[Dab][3-(3-Pyridyl)-Ala]-[NHMe]] ([X1]SEWF[Dab][AEF][2Nal][αMeL]E[Dab][3Pal]-NHMe; lactam 3-6, N-10)
97 | 14 | CNC(=O)[C@H](Cc1cccnc1)NC(=O)[C@H](CCN)NC(=O)[C@@H]1CCC(=O)NCc2ccc(cc2)CC(=O)N[C@@H](CO)C(=O)N[C@H]2CCC(=O)NCC[C@H](NC(=O)[C@H](CCCCNC(C)=O)NC(=O)[C@H](Cc3c[nH]c4ccccc34)NC2=O)C(=O)N[C@@H](Cc2ccc(OCCN)cc2)C(=O)N[C@@H](Cc2ccc3ccccc3c2)C(=O)N[C@@](C)(CC(C)C)C(=O)N1 [Compound 24, [4-Aminomethyl-phenylacetyl](1c)*SE(2c)W[K(Ac)][Dab](2c)[Y(2-aminoethoxy)][2-Nal][2-Me-Leu]E(1c)[Dab][3-(3-Pyridyl)-Ala]-[NHMe]] ([X1]SEWK(Ac)[Dab][AEF][2Nal][αMeL]E[Dab][3Pal]-NHMe; lactam 3-6, N-10)
97 |  | CNC(=O)[C@H](Cc1cccnc1)NC(=O)[C@H](CCN)NC(=O)[C@@H]1CCC(=O)NCc2ccc(cc2)CC(=O)N[C@@H](CO)C(=O)N[C@H]2CCC(=O)NCC[C@H](NC(=O)[C@H](CCC(=O)N3CCCC3)NC(=O)[C@H](Cc3c[nH]c4ccccc34)NC2=O)C(=O)N[C@@H](Cc2ccc(OCCN)cc2)C(=O)N[C@@H](Cc2ccc3ccccc3c2)C(=O)N[C@@](C)(CC(C)C)C(=O)N1 [Compound 27, [4-Aminomethyl-phenylacetyl](1c)*SE(2c)W[Q(pyrrolidin)][Dab](2c)[Y(2-aminoethoxy)][2-Nal][2-Me-Leu]E(1c)[Dab][3-(3-Pyridyl)-Ala]-[NHMe]] ([X1]SEWE(Pyrrolidide)[Dab][AEF][2Nal][αMeL]E[Dab][3Pal]-NHMe; lactam 3-6, N-10)

Same assay, conditions: read-out: % displacement (hIL-23R binding)

Emax [%] | SMILES
101 | CC(C)C[C@]1(C)NC(=O)[C@H](Cc2ccc3ccccc3c2)NC(=O)[C@H](Cc2ccc(OCCN)cc2)NC(=O)[C@@H]2CCNC(=O)CC[C@H](NC(=O)[C@H](CO)NC(=O)Cc3ccc(cc3)CNC(=O)CC[C@@H](C(=O)NC[C@@H](N[C@@H](Cc3cccnc3)C(N)=O)C(F)(F)F)NC1=O)C(=O)N[C@@H](Cc1c[nH]c3ccccc13)C(=O)N[C@@H](CCC(N)=O)C(=O)N2 [Compound 16, [4-Aminomethyl-phenylacetyl](1c)*SE(2c)WQ[Dab](2c)[Y(2-aminoethoxy)][2-Nal][2-Me-Leu]E(1c)[{d}Gly-CF3][3-(3-Pyridyl)-Ala]-[NH2]]
96 | CNC(=O)[C@H](Cc1cccnc1)NC(=O)[C@H](CCN)NC(=O)[C@@H]1CCC(=O)NCc2ccc(cc2)CC(=O)N(C)[C@@H](CO)C(=O)N[C@H]2CCC(=O)NCC[C@H](NC(=O)[C@H](CCC(N)=O)NC(=O)[C@H](Cc3c[nH]c4ccccc34)NC2=O)C(=O)N[C@@H](Cc2ccc(OCCN)cc2)C(=O)N[C@@H](Cc2ccc3ccccc3c2)C(=O)N[C@@](C)(CC(C)C)C(=O)N1 [Compound 18, [4-Aminomethyl-phenylacetyl](1c)*[N-Me-Ser]E(2c)WQ[Dab](2c)[Y(2-aminoethoxy)][2-Nal][2-Me-Leu]E(1c)[Dab][3-(3-Pyridyl)-Ala]-[NHMe]] ([X1][NMeS]EWQ[Dab][AEF][2Nal][αMeL]E[Dab][3Pal]-NHMe; lactam 3-6, N-10)
96 | CNC(=O)[C@H](Cc1cccnc1)NC(=O)[C@H](CCN)NC(=O)[C@@H]1CCC(=O)NCc2ccc(cc2)CC(=O)N[C@@H](CO)C(=O)N[C@H]2CCC(=O)NCC[C@H](NC(=O)[C@H](C)NC(=O)[C@H](Cc3c[nH]c4ccccc34)NC2=O)C(=O)N[C@@H](Cc2ccc(OCCN)cc2)C(=O)N[C@@H](Cc2ccc3ccccc3c2)C(=O)N[C@@](C)(CC(C)C)C(=O)N1 [Compound 22, [4-Aminomethyl-phenylacetyl](1c)*SE(2c)WA[Dab](2c)[Y(2-aminoethoxy)][2-Nal][2-Me-Leu]E(1c)[Dab][3-(3-Pyridyl)-Ala]-[NHMe]] ([X1]SEWA[Dab][AEF][2Nal][αMeL]E[Dab][3Pal]-NHMe; lactam 3-6, N-10)
